In US10626144B2, “Peptide derivatives and uses thereof” (Nosopharm, priority 2014, dated 2020):
Like-named read-outs stand apart in the source and are kept apart here. Numbered stars: 1 amine (or outer) side, 2 acyl side, 3 side chain; on linkers, the order of the positions; unused ones are H or OH. Square brackets hold non-standard residues; d marks the D form. Peptide text beside a SMILES is read from it. * marks the point of attachment. X3 = NC[C@H](OC(=O)C(F)(F)F)[C@H](N[*:1])C(=O)[*:2]; Phe(3,4-(OMe)2) = COc1ccc(C[C@H](N)C(=O)O)cc1OC; Phe(3-CONH2) = NC(=O)c1cccc(C[C@H](N)C(=O)O)c1; X1 = O=C([C@H](Cc1cc(F)c(F)cc1F)N[*:1])[*:2]; Abu(4,4,4-F3) = N[C@@H](CC(F)(F)F)C(=O)O; Phe(4-CN) = N#Cc1ccc(C[C@H](N)C(=O)O)cc1; Dab(3S-OH) = NC[C@H](O)[C@H](N)C(=O)O; Phe(2-F) = N[C@@H](Cc1ccccc1F)C(=O)O; ΔZArg = N=C(N)NCC/C=C(\N)C(=O)O; dOrn = NCCC[C@@H](N)C(=O)O; NH(CH2)4NH2 = NCCCCN*

Experiments:
[1] = test system: Ec #5 (DSM22315); test: MIC / resistance profile, multidrug-resistant strain; conditions: multidrug-resistant E. coli DSM22315
[2] = test system: Pseudomonas aeruginosa ATCC 27853; test: MIC, broth microdilution (CLSI), reference strain; conditions: CAMHB
[3] = test system: Escherichia coli ATCC 25922; test: MIC, broth microdilution (CLSI), reference strain; conditions: CAMHB
[4] = test system: Staphylococcus aureus ATCC 13709; test: MIC, broth microdilution (CLSI), reference strain; conditions: CAMHB
[5] = test system: Ec #3 (EGB957); test: MIC / resistance profile, multidrug-resistant strain; conditions: multidrug-resistant E. coli EGB957
[6] = test system: Ec #4 (GUE); test: as above; conditions: multidrug-resistant E. coli GUE
[7] = test system: Acinetobacter baumannii ATCC 19606; test: MIC, broth microdilution (CLSI), reference strain; conditions: CAMHB
[8] = test system: Ec #2 (MIN); test: MIC / resistance profile, multidrug-resistant strain; conditions: multidrug-resistant E. coli MIN
[9] = test system: Ec #1 (NCTC13476); test: as above; conditions: multidrug-resistant E. coli NCTC13476
[10] = target: N-type calcium channels (Cav2.2) (Rattus norvegicus (Rat), UniProt Q02294); test: biochemical; format: binding
[11] = value in brackets, rat cerebral cortex, [125I]ω-conotoxin GVIA 0.001 nM, read-out: IC50 Cav2.2
[12] = class symbol, rat cerebral cortex, [125I]ω-conotoxin GVIA 0.001 nM, 30 minutes at room temperature, read-out: IC50 Cav2.2

Structure (SMILES) | MIC Ec#5 [1] | Pa: MIC Pseudomonas aeruginosa ATCC 27853 [2] | Ec: MIC Escherichia coli ATCC 25922 [3] | Sa: MIC Staphylococcus aureus ATCC 13709 [4] | MIC Ec#3 [5] | MIC Ec#4 [6] | Ab: MIC Acinetobacter baumannii ATCC 19606 [7] | MIC Ec#2 [8] | MIC Ec#1 [9] | IC50 [10] | IC50 [10, 11] | IC50 [10, 12]
C[C@H](NC(=O)[C@@H](NC(=O)[C@@H](N)CCCCN)[C@@H](O)CN)C(=O)NCC(=O)N[C@H](CCCN)C(=O)N1CCC[C@H]1C(=O)N[C@@H](Cc1cc(F)c(F)cc1F)C(=O)N[C@@H](CCCCN)C(=O)N/C(=C\CCNC(=N)N)C(=O)O [24.77] (H-K[Dab(3S-OH)]AG[dOrn]P[X1]K[ΔZArg]-OH) | + (≤32 μg/mL) | − (>32 μg/mL) | ++ (≤8 μg/mL) | ++ (≤8 μg/mL) | ++ (≤8 μg/mL) | + (≤32 μg/mL) | − (>32 μg/mL) | + (≤32 μg/mL) | + (≤32 μg/mL) |  |  | 
COc1ccc(C[C@H](NC(=O)[C@@H]2CCCN2C(=O)[C@@H](CCCN)NC(=O)CNC(=O)[C@H](C)NC(=O)[C@@H](NC(=O)[C@@H](N)CCCCN)[C@@H](O)CN)C(=O)N[C@@H](CCCCN)C(=O)N/C(=C\CCNC(=N)N)C(=O)O)cc1OC [24.85] (H-K[Dab(3S-OH)]AG[dOrn]P[Phe(3,4-(OMe)2)]K[ΔZArg]-OH) | + (≤32 μg/mL) | − (>32 μg/mL) | ++ (≤8 μg/mL) | + (≤32 μg/mL) | + (≤32 μg/mL) | ++ (≤8 μg/mL) | − (>32 μg/mL) | + (≤32 μg/mL) | ++ (≤8 μg/mL) | > 0.3 µM | 1.2 µM | 
C[C@H](NC(=O)[C@@H](NC(=O)[C@@H](N)CCCCN)[C@@H](O)CN)C(=O)NCC(=O)N[C@H](CCCN)C(=O)N1CCC[C@H]1C(=O)N[C@@H](Cc1cccc(C(N)=O)c1)C(=O)N[C@@H](CCCCN)C(=O)N/C(=C\CCNC(=N)N)C(=O)O [24.90] (H-K[Dab(3S-OH)]AG[dOrn]P[Phe(3-CONH2)]K[ΔZArg]-OH) | ++ (≤8 μg/mL) | − (>32 μg/mL) | ++ (≤8 μg/mL) | ++ (≤8 μg/mL) | ++ (≤8 μg/mL) | ++ (≤8 μg/mL) | − (>32 μg/mL) | ++ (≤8 μg/mL) | ++ (≤8 μg/mL) |  |  | 
C[C@H](NC(=O)[C@@H](NC(=O)[C@@H](N)CCCCN)[C@@H](O)CN)C(=O)NCC(=O)N[C@H](CCCN)C(=O)N1CCC[C@H]1C(=O)N[C@@H](Cc1ccc(C#N)cc1)C(=O)N[C@@H](CCCCN)C(=O)N/C(=C\CCNC(=N)N)C(=O)O [24.100] (H-K[Dab(3S-OH)]AG[dOrn]P[Phe(4-CN)]K[ΔZArg]-OH) | + (≤32 μg/mL) | − (>32 μg/mL) | ++ (≤8 μg/mL) | ++ (≤8 μg/mL) | ++ (≤8 μg/mL) | ++ (≤8 μg/mL) | − (>32 μg/mL) | ++ (≤8 μg/mL) | ++ (≤8 μg/mL) |  |  | 
C[C@H](NC(=O)[C@@H](NC(=O)[C@@H](N)CCCCN)[C@@H](O)CN)C(=O)NCC(=O)N[C@H](CCCN)C(=O)N1CCC[C@H]1C(=O)N[C@@H](CC(F)(F)F)C(=O)N[C@@H](CCCCN)C(=O)N/C(=C\CCNC(=N)N)C(=O)O [24.109] (H-K[Dab(3S-OH)]AG[dOrn]P[Abu(4,4,4-F3)]K[ΔZArg]-OH) | + (≤32 μg/mL) | − (>32 μg/mL) | ++ (≤8 μg/mL) | ++ (≤8 μg/mL) | + (≤32 μg/mL) | + (≤32 μg/mL) | − (>32 μg/mL) | + (≤32 μg/mL) | + (≤32 μg/mL) | > 0.3 µM | 1 µM | 
C[C@H](NC(=O)[C@@H](NC(=O)[C@@H](N)CCCCN)[C@@H](O)CN)C(=O)NCC(=O)N[C@H](CCCN)C(=O)N1CCC[C@H]1C(=O)N[C@@H](Cc1ccccc1F)C(=O)N[C@@H](CCCCN)C(=O)N/C(=C\CCNC(=N)N)C(=O)O [24.151] (H-K[Dab(3S-OH)]AG[dOrn]P[Phe(2-F)]K[ΔZArg]-OH) | ++ (≤8 μg/mL) | − (>32 μg/mL) | ++ (≤8 μg/mL) | ++ (≤8 μg/mL) | + (≤32 μg/mL) | + (≤32 μg/mL) | − (>32 μg/mL) | + (≤32 μg/mL) | + (≤32 μg/mL) |  |  | > 0.3 µM
C[C@H](NC(=O)[C@@H](NC(=O)[C@@H](N)CCCCN)[C@@H](O)CN)C(=O)NCC(=O)N[C@H](CCCN)C(=O)N1CCC[C@H]1C(=O)N[C@@H](Cc1c[nH]c2ccccc12)C(=O)N[C@@H](CCCCN)C(=O)N/C(=C\CCNC(=N)N)C(=O)O [24.156] (H-K[Dab(3S-OH)]AG[dOrn]PWK[ΔZArg]-OH) | ++ (≤8 μg/mL) | − (>32 μg/mL) | ++ (≤8 μg/mL) | ++ (≤8 μg/mL) | ++ (≤8 μg/mL) | ++ (≤8 μg/mL) | − (>32 μg/mL) | ++ (≤8 μg/mL) | + (≤32 μg/mL) |  |  | 
CC(C)[C@H](NC(=O)[C@@H](NC(=O)[C@@H](N)CCCCN)[C@@H](O)CN)C(=O)NCC(=O)N[C@H](CCCN)C(=O)N1CCC[C@H]1C(=O)N[C@@H](Cc1cnc[nH]1)C(=O)N[C@@H](CCCCN)C(=O)N/C(=C\CCNC(=N)N)C(=O)N[C@@H](CCCCN)C(=O)NCCCCN [212.1] (H-K[Dab(3S-OH)]VG[dOrn]PHK[ΔZArg]K-{NH(CH2)4NH2}) |  | − (>32 μg/mL) | ++ (≤8 μg/mL) | ++ (≤8 μg/mL) |  |  | − (>32 μg/mL) |  |  |  |  | < 0.03 µM
CC(C)[C@H](NC(=O)[C@@H](NC(=O)[C@@H](N)CCCCN)[C@@H](O)CN)C(=O)NCC(=O)N[C@H](CCCN)C(=O)N1CCC[C@H]1C(=O)N[C@@H](Cc1cnc[nH]1)C(=O)N[C@@H](CCCCN)C(=O)N/C(=C\CCNC(=N)N)C(=O)O [212.2] (H-K[Dab(3S-OH)]VG[dOrn]PHK[ΔZArg]-OH) |  | − (>32 μg/mL) | − (>32 μg/mL) | + (≤32 μg/mL) |  |  | − (>32 μg/mL) |  |  |  |  | > 0.3 µM
N=C(N)NCC/C=C(\NC(=O)[C@H](CCCCN)NC(=O)[C@H](Cc1cnc[nH]1)NC(=O)[C@@H]1CCCN1C(=O)[C@@H](CCCN)NC(=O)CNC(=O)[C@@H](NC(=O)[C@@H](NC(=O)[C@@H](N)CCCCN)[C@@H](O)CN)[C@H](CN)OC(=O)C(F)(F)F)C(=O)N[C@@H](CCCCN)C(=O)NCCCCN [224.1] (H-K[Dab(3S-OH)][X3]G[dOrn]PHK[ΔZArg]K-{NH(CH2)4NH2}) |  | + (≤32 μg/mL) | ++ (≤8 μg/mL) | ++ (≤8 μg/mL) |  |  | − (>32 μg/mL) |  |  |  |  | < 0.03 µM
